Experiment: Cytotoxicity against human MDA-MB-231 cells assessed as cell viability at 25 to 100 uM after 72 hrs by MTT assay relative to control
Assay type: cell-based
Details: read-out: Activity

Compound	viability at 72 h, up to 100 µM [%]
O=c1[nH]c(=S)[nH]c2cc(-c3ccc(Cl)c(Cl)c3)nn12	80
NC(=S)Nc1nn2c(=O)[nH]c(=S)[nH]c2c1Cc1ccc(C(F)(F)F)cc1	80
NC(=S)Nc1nn2c(=O)[nH]c(=S)[nH]c2c1Cc1ccc(-c2ccccc2)cc1	80
NC(=S)Nc1nn2c(=O)[nH]c(=S)[nH]c2c1Cc1ccc(Oc2ccccc2)cc1	80
NC(=S)Nc1nn2c(=O)[nH]c(=S)[nH]c2c1Cc1cccc2ccccc12	80
O=c1[nH]c(=O)c2cc[nH]c2[nH]1 [7-DEAZAXANTHINE]	80

From ChEMBL document CHEMBL3232704, “Discovery of mixed type thymidine phosphorylase inhibitors endowed with antiangiogenic properties: synthesis, pharmacological evaluation and molecular docking study of 2-thioxo-pyrazolo[1,5-a][1,3,5]triazin-4-ones. Part II” (Eur J Med Chem, 2014)
